# Assay results as given in PMC7862169, “Restoration of renal TIMP3 levels via genetics and pharmacological approach prevents experimental diabetic nephropathy” (Clinical and Translational Medicine, 2021).
# What was measured:
# [1] = cited from earlier work; for Kidney selectivity of carrier peptide: even with conjugated drugs
# Text: Many proteins and peptides take on an increasingly important role as therapeutics in areas including diabetes diseases mainly due to their potential to bind to targets in a selective manner, thus reducing undesired off‐target effects. ^17 Drug‐targeting delivery to the kidney is an attractive method to increase the pharmaceutical compounds efficacy, ^18 however it represents a promising but underdeveloped area. Recently, galectin‐3 targeted G3C12 peptide and ε‐polylysine derived, synthetic (KKEEE)3K peptide have been identified as novel highly kidney‐specific carriers with exceptional kidney s ...
# human recombinant MMP2 = target: T1, human recombinant MMP2 (Homo sapiens, UniProt P08253); experiment: MMP2 colorimetric Inhibitor Screening Assay kit; type: biochemical; settings: 1 μM peptide, 0.9 U enzyme, 37°C 60 minutes before substrate, read at 412 nm, n = 3; Figures 5A, S4E
# T1 construct: purchased Abcam
# T1 sequence (P08253 110-660): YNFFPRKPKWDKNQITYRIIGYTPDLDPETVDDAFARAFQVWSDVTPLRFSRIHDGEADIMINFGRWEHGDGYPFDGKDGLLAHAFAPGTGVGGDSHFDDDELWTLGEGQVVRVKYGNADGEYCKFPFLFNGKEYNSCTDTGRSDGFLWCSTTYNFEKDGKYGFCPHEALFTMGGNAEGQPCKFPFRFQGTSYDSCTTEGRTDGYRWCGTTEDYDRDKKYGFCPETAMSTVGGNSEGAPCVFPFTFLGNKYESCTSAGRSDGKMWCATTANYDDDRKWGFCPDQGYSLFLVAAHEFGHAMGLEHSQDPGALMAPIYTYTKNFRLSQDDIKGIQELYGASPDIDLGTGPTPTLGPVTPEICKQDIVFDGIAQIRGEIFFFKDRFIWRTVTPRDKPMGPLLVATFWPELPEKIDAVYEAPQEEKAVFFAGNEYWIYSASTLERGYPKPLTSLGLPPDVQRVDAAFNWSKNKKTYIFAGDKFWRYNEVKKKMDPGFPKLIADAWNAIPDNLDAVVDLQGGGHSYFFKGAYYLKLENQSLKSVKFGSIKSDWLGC
# Method: (§1) The MMP2/9 activities were evaluated using MMP2/MMP9 colorimetric Inhibitor Screening Assay kits (Abcam) under the manufacturer's instruction. In brief, 0.9 U of human recombinant MMP2 or MMP9 was mixed with 1 μM G3C12, G3C12‐NTIMP3, G3C12‐T2GNTIMP3 peptides, or 1.3 μM NNGH inhibitor as […]. The mixture was incubated at 37°C for 60 minutes then substrate was added. The plate was read at 412 nm by infinite F50 microplate reader (TECAN). Continuous recording was made at 1 minute interval for 20 minutes. The experiment was performed in triplicate.
# diabetic DBA/2J mice = experiment: Peptide treatment of STZ diabetic mice: toxicity, behaviour, blood glucose; type: in vivo; settings: STZ diabetic DBA/2J mice, 2 mg/kg iv, two injections per week for 8 weeks
# Method: Diabetes was induced in 8‐week‐old mice by a multiple low‐dose streptozotocin (STZ) (Sigma) injection. STZ was given intraperitoneally (ip) at 50 mg/kg per day (freshly made in Na‐Citrate buffer, pH 4.5) for 5 consecutive days after a 4 hours fast. Control animals were treated with Na‐citrate buffer alone. Diabetes was defined as fed blood glucose level ≥250 mg/dL using a glucometer (OneTouch Ultra, LifeScan).
# At 5 weeks after STZ or Na‐Citrate buffer administration, DBA/2J mice were randomly divided into the following four treatment groups: (1) vehicle buffer (PBS), (2) G3C12 free peptide, (3) G3C12‐NTIMP3 peptide, and (4) G3C12‐T2GNTIMP3 peptide. Peptides were dissolved in sterile PBS and administered intravenously (iv) by retro‐orbital injection (2 mg/kg body weight) in mice two times per week for 8 weeks.
# human recombinant MMP9 = target: T2, human recombinant MMP9 (Homo sapiens, UniProt P14780); experiment: MMP9 colorimetric Inhibitor Screening Assay kit; type: biochemical; settings: 1 μM peptide, 0.9 U enzyme, 37°C 60 minutes before substrate, read at 412 nm, n = 3; Figures 5A, S4E
# T2 construct: purchased Abcam
# T2 sequence (P14780 94-707): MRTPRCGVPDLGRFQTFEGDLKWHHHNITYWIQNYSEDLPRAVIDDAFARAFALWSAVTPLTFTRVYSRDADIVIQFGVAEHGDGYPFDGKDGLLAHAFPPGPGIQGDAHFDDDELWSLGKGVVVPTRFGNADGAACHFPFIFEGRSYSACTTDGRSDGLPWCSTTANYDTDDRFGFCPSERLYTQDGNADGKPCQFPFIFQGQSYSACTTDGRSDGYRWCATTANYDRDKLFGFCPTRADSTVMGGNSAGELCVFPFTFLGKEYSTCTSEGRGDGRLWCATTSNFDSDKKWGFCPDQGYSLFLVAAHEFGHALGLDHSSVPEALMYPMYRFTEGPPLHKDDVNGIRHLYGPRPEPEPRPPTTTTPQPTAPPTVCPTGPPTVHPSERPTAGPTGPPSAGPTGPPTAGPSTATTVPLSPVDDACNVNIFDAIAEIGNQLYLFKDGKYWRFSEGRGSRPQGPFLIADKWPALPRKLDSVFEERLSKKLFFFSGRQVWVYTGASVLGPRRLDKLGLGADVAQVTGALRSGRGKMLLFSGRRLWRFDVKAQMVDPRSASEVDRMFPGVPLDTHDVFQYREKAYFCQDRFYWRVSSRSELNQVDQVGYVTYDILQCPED
# Method: as §1
# human recombinant ADAM17 = target: T3, human recombinant ADAM17 (Homo sapiens, UniProt P78536); experiment: ADAM17 activity, SensoLyte 520 TACE Activity Assay Kit; type: biochemical; settings: 1 μM peptide, 1 μM enzyme, QXL520/5-FAM FRET substrate, 60 minutes, n = 3; Figures 5A, S4E
# T3 construct: purchased R&D Systems
# T3 sequence (P78536 215-824): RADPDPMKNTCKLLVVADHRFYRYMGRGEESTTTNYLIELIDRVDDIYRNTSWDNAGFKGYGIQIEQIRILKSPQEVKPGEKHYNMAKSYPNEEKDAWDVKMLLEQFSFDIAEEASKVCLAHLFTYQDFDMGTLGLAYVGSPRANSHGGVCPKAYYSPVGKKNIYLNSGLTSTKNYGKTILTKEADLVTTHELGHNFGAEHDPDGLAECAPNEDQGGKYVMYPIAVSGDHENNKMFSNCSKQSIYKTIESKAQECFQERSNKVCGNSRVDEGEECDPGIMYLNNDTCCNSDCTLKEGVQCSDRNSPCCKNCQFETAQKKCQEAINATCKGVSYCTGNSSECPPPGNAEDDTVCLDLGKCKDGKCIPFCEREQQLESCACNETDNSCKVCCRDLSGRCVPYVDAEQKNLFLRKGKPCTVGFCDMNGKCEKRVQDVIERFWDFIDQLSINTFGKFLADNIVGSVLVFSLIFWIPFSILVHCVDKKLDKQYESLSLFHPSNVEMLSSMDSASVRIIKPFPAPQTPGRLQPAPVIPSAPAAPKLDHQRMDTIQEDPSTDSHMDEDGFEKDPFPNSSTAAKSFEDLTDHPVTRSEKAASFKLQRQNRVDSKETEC
# Method: ADAM17 activity was determined using the SensoLyte 520 TACE Activity Assay Kit (AnaSpec). 1 μM human recombinant ADAM17 (R&D Systems) was incubated with the QXL520/ 5‐FAM FRET substrate, derived from a sequence surrounding the cleavage site of ADAM17. For inhibitor studies, 1μM TAPI‐0 or 1 μM G3C12, G3C12‐NTIMP3 and G3C12‐T2GNTIMP3 peptides were used. Active ADAM17 cleaves FRET substrate into two separate fragments resulting in an increase of 5‐FAM fluorescence which can be monitored at excitation/emission = 490 nm/520 nm measured in a fluorescence microplate reader (Beckman Coulter DTX 800) continuously every 5 minutes for 60 minutes (10).
Substance,Kidney accumulation of carrier peptide [1],Toxic profile of carrier peptide [1],Kidney selectivity of carrier peptide [1],Inhibition of human MMP2 enzyme activity (percentage of residual activity) (human recombinant MMP2),Changes in behavioral or nutritional status (diabetic DBA/2J mice),Toxic effects (diabetic DBA/2J mice),Inhibition of human MMP9 enzyme activity (percentage of residual activity) (human recombinant MMP9),Inhibition of human ADAM17 enzyme activity (percentage of residual activity) (human recombinant ADAM17)
"(KKEEE)3K [ε‐polylysine derived, synthetic kidney‐specific carrier peptide]",rapid kidney accumulation,no toxic profile,exceptional kidney selectivity,,,,,
ANTPCGPYTHDCPVKR [G3C12],rapid kidney accumulation,no toxic profile,exceptional kidney selectivity,did not show any inhibitory activity,Neither have any changes been observed,No toxic effects were observed,did not show any inhibitory activity,did not show any inhibitory activity
